Active and inactive are the calls of the source. No cut-off for these calls is given here.
Key:
Type in all cases: functional, cell-based
EOL1 = assay: Cell viability (EOL-1 cells) (CellTiterGlo); conditions: Homo sapiens
A204 = assay: Cell viability (A204 cells) (CellTiterGlo); conditions: Homo sapiens
[1] = target: T1, Bromodomain-containing protein 7 (Homo sapiens, UniProt Q9NPI1); assay: Degradation of BRD7 in RI-1 cells (8 h) (Western Blot degradation assay)
T1 sequence (Q9NPI1 whole entry): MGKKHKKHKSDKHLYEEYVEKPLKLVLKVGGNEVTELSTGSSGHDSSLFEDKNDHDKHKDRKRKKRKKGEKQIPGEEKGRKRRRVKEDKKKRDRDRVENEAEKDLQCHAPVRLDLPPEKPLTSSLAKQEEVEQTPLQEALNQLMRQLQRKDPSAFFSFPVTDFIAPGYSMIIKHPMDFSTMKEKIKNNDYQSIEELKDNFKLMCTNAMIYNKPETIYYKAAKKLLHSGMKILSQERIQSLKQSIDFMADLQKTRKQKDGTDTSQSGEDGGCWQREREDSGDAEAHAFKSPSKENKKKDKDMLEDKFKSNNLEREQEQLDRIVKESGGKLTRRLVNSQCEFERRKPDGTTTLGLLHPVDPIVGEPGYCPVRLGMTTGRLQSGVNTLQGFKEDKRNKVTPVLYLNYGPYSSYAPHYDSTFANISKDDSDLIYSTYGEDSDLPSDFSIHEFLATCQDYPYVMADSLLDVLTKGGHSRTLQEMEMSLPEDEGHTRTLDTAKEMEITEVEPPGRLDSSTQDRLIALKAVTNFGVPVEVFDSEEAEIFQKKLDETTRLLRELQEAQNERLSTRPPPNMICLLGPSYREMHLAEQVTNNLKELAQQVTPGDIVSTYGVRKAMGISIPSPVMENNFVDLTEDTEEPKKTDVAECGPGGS

DC50 [1]: 4.5 nM (active)
SMILES: COc1cc(-c2cn(C)c(=O)c3cnccc23)cc(OC)c1CN1CCN(CCCCCOc2cc(-c3scnc3C)ccc2CNC(=O)[C@@H]2C[C@@H](O)CN2C(=O)[C@@H](NC(=O)C2(F)CC2)C(C)(C)C)CC1
EC50 (EOL1): 3.4 nM (active)
EC50 (A204): 39.8 nM (active)
